Measured values taken from publication PMC9090388, “Design, synthesis, biological evaluation and QSAR analysis of novel N-substituted benzimidazole derived carboxamides” (Journal of Enzyme Inhibition and Medicinal Chemistry, 2022).

Experiments:
[1] = Ferric reducing/antioxidant power (FRAP assay); assay type: biochemical; settings: triplicate; – = not active in the FRAP assay
Method: The FRAP method was carried out according to previously described procedures with some modifications to be compatible with an assay on a 96-well microplate. All results were expressed as Fe^2+ equivalents (Fe^2+ µmol).

[2] = DPPH free radical scavenging (reducing activity of the stable radical DPPH); assay type: biochemical; settings: DPPH 50 µM in absolute ethanol; – = did not show any DPPH activity
Method: The reducing activity of investigated systems was achieved by the DPPH method according to previously described procedures with modifications to assure the use in a 96-well microplate. Briefly, equal volumes of various concentrations of tested molecules (dissolved in DMSO) were added to the solution of DPPH (final concentration 50 µM in absolute ethanol). Ethanol and DMSO were used as control solutions in line with earlier reports.[27]

IC50 [2] [mM]	SMILES	FRAP [1] [mmolFe^2+/mmolC]
8.71 ± 0.34	COc1ccccc1C(=O)Nc1nc2ccccc2n1-c1ccccc1 [Compound 45, 2-Methoxy-N-(1-phenyl-1H-benzo[d]imidazol-2-yl)benzamide]	–
10.55 ± 0.03	COc1ccccc1C(=O)Nc1nc2ccccc2n1CC(C)C [Compound 37, N-(1-Isobutyl-1H-benzo[d]imidazol-2-yl)-2-methoxybenzamide]	–
26.58 ± 0.02	COc1ccc(C(=O)Nc2nc3ccccc3n2CC(C)C)c(OC)c1 [Compound 38, N-(1-Isobutyl-1H-benzo[d]imidazol-2-yl)-2,4-dimethoxybenzamide]	5.80 ± 0.15
5.35 ± 0.07	COc1ccc(C(=O)Nc2nc3ccc(C#N)cc3n2CC(C)C)c(OC)c1 [Compound 42, N-(6-Cyano-1-isobutyl-1H-benzo[d]imidazol-2-yl)-2,4-dimethoxybenzamide]	–
75.7 ± 6.08	COc1ccccc1C(=O)Nc1nc2ccccc2[nH]1 [Compound 25, N-(1H-Benzo[d]imidazol-2-yl)-2-methoxybenzamide]	–
49.6 ± 18.4	COc1ccc(C(=O)Nc2nc3ccccc3n2C)c(OC)c1 [Compound 30, 2,4-Dimethoxy-N-(1-methyl-1H-benzo[d]imidazol-2-il)benzamide]	–
6.05 ± 1.03	COc1ccccc1C(=O)Nc1nc2ccccc2n1C [Compound 29, 2-Methoxy-N-(1-methyl-1H-benzo[d]imidazol-2-yl)benzamide]	110.16 ± 1.44
29.9 ± 1.3	COc1ccccc1C(=O)Nc1nc2ccc(C#N)cc2n1-c1ccccc1 [Compound 49, N-(6-Cyano-1-phenyl-1H-benzo[d]imidazol-2-yl)-2-methoxybenzamide]	221.31 ± 27.39
4.58 ± 0.15	COc1ccccc1C(=O)Nc1nc2ccc(C#N)cc2n1CC(C)C [Compound 41, N-(6-Cyano-1-isobutyl-1H-benzo[d]imidazol-2-yl)-2-methoxybenzamide]	154.30 ± 5.67

The next lines start with the compound.

SMILES	IC50 [2] [mM]	FRAP [1] [mmolFe^2+/mmolC]
COc1ccc(C(=O)Nc2nc3ccccc3[nH]2)c(OC)c1 [Compound 26, N-(1H-Benzo[d]imidazol-2-yl)-2,4-dimethoxybenzamide]	41.7 ± 1.51	166.61 ± 9.51
COc1ccc(C(=O)Nc2nc3ccc(C#N)cc3n2-c2ccccc2)c(OC)c1 [Compound 50, N-(6-Cyano-1-phenyl-1H-benzo[d]imidazol-2-yl)-2,4-dimethoxybenzamide]	–	506.70 ± 7.46
O=C(Nc1nc2ccccc2n1-c1ccccc1)c1ccccc1 [Compound 44, N-(1-Phenyl-1H-benzo[d]imidazol-2-yl)benzamide]	–	184.70 ± 3.22
N#Cc1ccc2nc(NC(=O)c3ccccc3)n(-c3ccccc3)c2c1 [Compound 48, N-(6-Cyano-1-phenyl-1H-benzo[d]imidazol-2-yl)benzamide]	–	138.98 ± 32.68
COc1ccc(C(=O)Nc2nc3ccccc3n2-c2ccccc2)c(OC)c1 [Compound 46, 2,4-Dimethoxy-N-(1-phenyl-1H-benzo[d]imidazol-2-yl)benzamide]	8.48 ± 0.71	–
Cn1c(NC(=O)c2ccccc2)nc2ccc(C#N)cc21 [Compound 32, N-(6-Cyano-1-methyl-1H-benzo[d]imidazol-2-yl)benzamide]	–	160.27 ± 16.35
Cc1cc(C(C)(C)C)c(O)c(C(C)(C)C)c1 [BHT, butylated hydroxytoluene, reference compound]	–	679.15
